Usually melting point stands for the temperature of the solid-liquid transition.

These results are taken from patent publication US6492387B2, “Isoindolyl and isoquinolinyl aroyl pyrrole compounds” (Ortho-McNeil Pharamaceutical, Inc., priority 2000, dated 2002).

Structures are written as SMILES. Where a name gives a salt, the structure may show the parent alone.

On to `COc1cc2c(cc1OC)CN(CC(=O)c1cc(C(=O)c3ccc(SC)cc3)n(C)c1)CC2` (as salt: hydrochloride) [Compound 4, 2-(3,4-dihydro-6,7-dimethoxy-2(1H)-isoquinolinyl)-1-[1-methyl-5-[4-(methylthio)benzoyl]-1H-pyrrol-3-yl]-ethanone], for which the melting point is 231 to 233 °C.
